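Five concentrations, 48 hours, 96-well plates. The concentration for 50% growth inhibition is given as GI50. TGI is the concentration that stops growth completely.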
Columns and labels:
Assay in all cases: NCI-60 cell line screen, 48 h
[1] = tested on: HCC-2998 colon
[2] = tested on: MDA-MB-231 breast
[3] = tested on: HT29 colon
[4] = tested on: U251 CNS
[5] = tested on: NCI-H226 lung
[6] = tested on: A498 renal
[7] = tested on: IGROV1 ovarian
[8] = tested on: UO-31 renal
[9] = tested on: HCT-116 colon
[10] = tested on: BT-549 breast
[11] = tested on: TK-10 renal
[12] = tested on: CCRF-CEM leukemia
[13] = tested on: SK-MEL-5 melanoma
[14] = tested on: NCI/ADR-RES ovarian
[15] = tested on: LOX IMVI melanoma
[16] = tested on: UACC-257 melanoma
[17] = tested on: NCI-H460 lung
[18] = tested on: DU-145 prostate
[19] = tested on: OVCAR-8 ovarian
[20] = tested on: RXF 393 renal
[21] = tested on: MCF7 breast
[22] = tested on: SK-MEL-2 melanoma
[23] = tested on: T-47D breast
[24] = tested on: UACC-62 melanoma
[25] = tested on: PC-3 prostate
[26] = tested on: HS 578T breast
[27] = tested on: HCT-15 colon
[28] = tested on: OVCAR-4 ovarian
[29] = tested on: M14 melanoma
[30] = tested on: SK-MEL-28 melanoma
[31] = tested on: HOP-92 NSCLC
[32] = tested on: HOP-62 NSCLC
[33] = tested on: COLO 205 colon
[34] = tested on: A549 NSCLC
[35] = tested on: K-562 leukemia
[36] = tested on: EKVX NSCLC
[37] = tested on: RPMI-8226 leukemia
[38] = tested on: OVCAR-5 ovarian
[39] = tested on: MALME-3M melanoma
[40] = tested on: SW-620 colon
[41] = tested on: MOLT-4 leukemia
[42] = tested on: SF-539 CNS
[43] = tested on: 786-0 renal
[44] = tested on: SN12C renal
[45] = tested on: HL-60(TB) leukemia
[46] = tested on: ACHN renal
[47] = tested on: SNB-19 CNS
[48] = tested on: SK-OV-3 ovarian
[49] = tested on: NCI-H522 lung
[50] = tested on: CAKI-1 renal
[51] = tested on: MDA-MB-435
[52] = tested on: KM12 colon
[53] = tested on: NCI-H23 lung
[54] = tested on: SF-268 CNS
[55] = tested on: SF-295 CNS

`O=C(CCCCCCNC(=O)c1csc(Br)n1)NO` was tested, and the GI50 [1] was 3400 nM, the TGI [1] was 13100 nM and the GI50 [2] was 2010 nM. The TGI [2] was over 33300 nM, the GI50 [3] was 985 nM and the TGI [3] was 5560 nM. The GI50 [4] was 1530 nM, the TGI [4] was 7230 nM and the GI50 [5] was 5170 nM. For the same molecule, the TGI [5] was over 33300 nM, the GI50 [6] was 676 nM and the TGI [6] was 2080 nM. For the same molecule, the GI50 [7] was 1690 nM, the TGI [7] was over 33300 nM and the GI50 [8] was 1120 nM. The TGI [8] was over 33300 nM, the GI50 [9] was 892 nM and the TGI [9] was 3780 nM. It also gave a GI50 [10] of 3050 nM, a TGI [10] of over 33300 nM and a GI50 [11] of 619 nM. The TGI [11] was 2550 nM, the GI50 [12] was 1060 nM and the TGI [12] was over 33300 nM. For the same molecule, the GI50 [13] was 1240 nM, the TGI [13] was 4900 nM and the GI50 [14] was 694 nM. The TGI [14] was 2500 nM, the GI50 [15] was 47.3 nM and the TGI [15] was 3790 nM. For the same molecule, the GI50 [16] was 853 nM, the TGI [16] was 3330 nM and the GI50 [17] was 1250 nM. The TGI [17] was over 33300 nM, the GI50 [18] was 1210 nM and the TGI [18] was over 33300 nM. It also gave a GI50 [19] of 961 nM, a TGI [19] of 9580 nM and a GI50 [20] of 929 nM. The TGI [20] was 3110 nM, the GI50 [21] was 1410 nM and the TGI [21] was over 33300 nM. For the same molecule, the GI50 [22] was 1180 nM, the TGI [22] was 6730 nM and the GI50 [23] was 648 nM. It also gave a TGI [23] of 1830 nM, a GI50 [24] of 699 nM and a TGI [24] of 2500 nM. For the same molecule, the GI50 [25] was 2430 nM, the TGI [25] was over 33300 nM and the GI50 [26] was 917 nM. The TGI [26] was 22100 nM, the GI50 [27] was 2160 nM and the TGI [27] was over 33300 nM. It also gave a GI50 [28] of 3650 nM, a TGI [28] of over 33300 nM and a GI50 [29] of 1640 nM. For the same molecule, the TGI [29] was over 33300 nM, the GI50 [30] was 1290 nM and the TGI [30] was over 33300 nM. It also gave a GI50 [31] of 706 nM, a TGI [31] of 2240 nM and a GI50 [32] of 1410 nM. It also gave a TGI [32] of over 33300 nM, a GI50 [33] of 700 nM and a TGI [33] of 1780 nM. The GI50 [34] was 1350 nM, the TGI [34] was 14400 nM and the GI50 [35] was 1130 nM. The TGI [35] was over 33300 nM, the GI50 [36] was 1990 nM and the TGI [36] was over 33300 nM. The GI50 [37] was 951 nM, the TGI [37] was 13400 nM and the GI50 [38] was 1160 nM. The TGI [38] was over 33300 nM, the GI50 [39] was 787 nM and the TGI [39] was over 33300 nM. It also gave a GI50 [40] of 637 nM, a TGI [40] of 1580 nM and a GI50 [41] of 1020 nM. The TGI [41] was over 33300 nM, the GI50 [42] was 1620 nM and the TGI [42] was over 33300 nM. The GI50 [43] was 2440 nM, the TGI [43] was over 33300 nM and the GI50 [44] was 2950 nM. For the same molecule, the TGI [44] was over 33300 nM, the GI50 [45] was 1270 nM and the TGI [45] was over 33300 nM. It also gave a GI50 [46] of 1180 nM, a TGI [46] of 7530 nM and a GI50 [47] of 3200 nM. For the same molecule, the TGI [47] was over 33300 nM, the GI50 [48] was 1040 nM and the TGI [48] was 5430 nM. The GI50 [49] was 844 nM, the TGI [49] was 5090 nM and the GI50 [50] was 1120 nM. For the same molecule, the TGI [50] was 8220 nM, the GI50 [51] was 1050 nM and the TGI [51] was 6300 nM. For the same molecule, the GI50 [52] was 2750 nM, the TGI [52] was over 33300 nM and the GI50 [53] was 1900 nM. For the same molecule, the TGI [53] was over 33300 nM, the GI50 [54] was 2430 nM and the TGI [54] was over 33300 nM. For the same molecule, the GI50 [55] was 1660 nM and the TGI [55] was 9370 nM.

— PubChem BioAssay (NCI)
